Columns and labels:
[1] = target: T1, human orexin-2 receptor (OX2R) (Homo sapiens, UniProt O43614); experiment: Human OX2R IP1 assay; assay type: cell-based; settings: T-Rex CHO cells stably overexpressing human OX2R; IP1 accumulation, 1 hr at 37 degrees C
T1 construct: expressed in transfected cells
T1 sequence (O43614 1-444): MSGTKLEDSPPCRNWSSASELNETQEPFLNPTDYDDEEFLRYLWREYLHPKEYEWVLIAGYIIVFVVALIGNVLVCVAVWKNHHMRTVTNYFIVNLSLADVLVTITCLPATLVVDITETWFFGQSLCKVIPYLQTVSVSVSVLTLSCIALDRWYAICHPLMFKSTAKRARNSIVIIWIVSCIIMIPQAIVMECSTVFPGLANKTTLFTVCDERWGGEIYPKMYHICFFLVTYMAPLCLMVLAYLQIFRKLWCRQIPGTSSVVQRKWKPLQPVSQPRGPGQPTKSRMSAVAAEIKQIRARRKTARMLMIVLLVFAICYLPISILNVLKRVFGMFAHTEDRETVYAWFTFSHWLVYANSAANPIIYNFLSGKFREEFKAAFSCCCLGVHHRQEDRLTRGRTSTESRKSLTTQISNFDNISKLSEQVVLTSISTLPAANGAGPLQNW
Experimental: T-Rex CHO cells stably overexpressing the human orexin-2 receptor (OX2R) were induced overnight with 1 μg/mL of doxycycline in a T225 flask. 24 hours post induction, cells were lifted with accutase and plated into a 384-well proxy plate at 30,000 cells/well. Cells were then treated with different test compounds in 1× stimulation buffer containing 10 mM Hepes, 1 mM CaCl2), 0.5 mM MgCl2, 4.2 mM KCl, 146 mM NaCl, 5.5 mM glucose, and 50 mM LiCl, pH 7.4, for 1 hr at 37 degrees C. Following incubation, the reaction was terminated by the addition of detection mix, which is composed of IP1-d2 and anti-IP1-cryptate diluted in lysis buffer as well as 1× stimulation buffer. The plates were allowed to incubate for 1 hour at room temperature and were then read in the EnVision® multimode plate reader, measuring inositol phosphate levels.
Cisbio IP1 is a cell-based functional assay quantifying the accumulation of inositol monophosphate (IP), a metabolite released as a result of orexin 2 receptor activation through the phospholipase C-Gq signaling pathway. This is a competitive immunoassay in which the IP1 produced by the cells upon receptor activation competes with the IP1 analog coupled to the d2 fluorophore (acceptor) for binding to an anti-IP1 monoclonal antibody labeled with Eu cryptate (donor). The measured HTRF-FRET based signal is inversely proportional to the IP1 concentration produced.
The EC50 values reported in Table 2 were obtained according to the human OX2R IP1 assay described above. Data are the mean EC50 values±S.E.M. The compound methyl (2R,3S)-3-((methylsulfonyl)amino)-2-(((cis-4-phenylcyclohexyl)oxy)methyl)-piperidine-1-carboxylate (sometimes referred to herein as Reference Compound A) is a reference compound which is disclosed in Example 5 of PCT publication no. WO2017/135306.

[2] = Hepatocytes stability assay (human hepatocytes); assay type: in vitro ADME; settings: both sexes, cryopreserved hepatocytes, 1 μM test compound, 1×10^6 cell/mL, read-out: CLint (μL/min/million cells)
Experimental: (§1) In vitro metabolic stability was assessed using cryopreserved hepatocytes from male Sprague Dawley rats and a pool of 50 mixed gender humans (BioIVT, Baltimore, MD). The incubation mixtures were prepared by mixing 250 μL of pre-warmed KHB (Krebs-Henseleit buffer) containing 2×10^6 cell/mL of hepatocytes with 250 μL of pre-warmed KHB buffer containing 2 μM of test compounds in a 48-well plate, giving a final concentration of 1 μM test compound (0.1% DMSO) and 1×10^6 cell/mL of hepatocytes. The reaction mixture was incubated at 37 degrees C. A 50 μL aliquot of incubation mixture was taken at time points (0, 15, 30, 60, 120 and 240 minutes) and transferred into a 96-well plate containing 300 μL ice-cold acetonitrile (containing 30 ng/mL of labetalol and 10 ng/mL of Naltrexone-d3 as internal standards) and immediately placed in ice to terminate the reaction. Samples were centrifuged, and supernatants were transferred into 96-well plates for liquid chromatography with tandem mass spectrometry (LC-MS/MS) analysis to monitor the depletion of the test compound. Data was calculated as percent remaining by assuming zero-minute time point peak area ratio (analyte/IS) as 100% and dividing remaining time point peak area ratios by zero-minute time point peak area ratio. Data were fitted to a first-order decay model to determine half-life. From a plot of log (ln) peak area against time, the slope of the line was determined. Subsequently, half-life (T1/2) and intrinsic clearance (CLint) were calculated using the equations below: • Elimination rate constant (k)=(−slope) • Half-life (T1/2) min=0.693/k • Intrinsic Clearance (CLint) (mL/min/million cells)=(V×0.693)/T1/2 • V=incubation volume mL/number of cells The in vitro T1/2 was converted to in vitro intrinsic clearance (CLint,hep) in units of mL/min/kg using the formula shown below: The in vitro intrinsic clearance (CLint,hep) was scaled to in vivo hepatic clearance (CL,hep) using the following equation which was adapted from a well-stirred model. [formula] where Q is the liver blood flow and fu is the fraction unbound (assumed to be unity in this case). All parameters used in the calculation are shown below (Table 4). The extraction ratio (ER) was calculated by dividing the hepatic clearance of a compound to the liver blood flow. The data reported in Table 5 were obtained according to the human hepatocytes stability assay described above.

human hepatocytes = experiment: Hepatocytes stability assay (human hepatocytes); assay type: in vitro ADME; settings: hepatic clearance divided by liver blood flow, fu assumed unity
Experimental: as §1

| Structure (SMILES) | EC50 [1] | also measured |
| --- | --- | --- |
| CS(=O)(=O)N[C@H]1CCN(c2ncccc2F)C[C@H]1CO[C@H]1CC[C@@H](c2ccccc2)CC1 [Compound 26] | < 100 nM | – |
| CS(=O)(=O)N[C@H]1CCN(c2ccccn2)C[C@H]1CO[C@H]1CC[C@@H](c2ccccc2O)CC1 [Compound 30] | 100 to 1000 nM | – |
| CS(=O)(=O)N[C@H]1CCN(c2ccccn2)C[C@H]1CO[C@H]1CC[C@@H](c2ccncn2)CC1 [Compound 8] | > 1000 nM | – |
| CS(=O)(=O)N[C@H]1CCN(c2nccc3ncnn23)C[C@H]1CO[C@H]1CC[C@@H](c2ccccc2)CC1 [Compound 44] | 100 to 1000 nM | – |
| CS(=O)(=O)N[C@H]1CCN(c2ccccn2)C[C@H]1CO[C@H]1CC[C@@H](c2ccnnc2)CC1 [Compound 13] | > 1000 nM | – |
| CS(=O)(=O)N[C@H]1CCN(c2ccccn2)C[C@H]1CO[C@H]1CC[C@@H](c2cccc(C(F)(F)F)c2)CC1 [Compound 33] | 100 to 1000 nM | – |
| Cc1cccc([C@H]2CC[C@@H](OC[C@@H]3CN(c4ccccn4)CC[C@@H]3NS(C)(=O)=O)CC2)c1C [Compound 17] | < 100 nM | – |
| CS(=O)(=O)N[C@H]1CCN(c2ccccn2)C[C@H]1CO[C@H]1CC[C@@H](c2ccc(F)cc2)CC1 [Compound 7] | < 100 nM | – |
| CS(=O)(=O)N[C@H]1CCN(c2cccc3ccnn23)C[C@H]1CO[C@H]1CC[C@@H](c2ccccc2)CC1 [Compound 42] | > 1000 nM | – |
| CS(=O)(=O)N[C@H]1CCN(c2ccc(F)cn2)C[C@H]1CO[C@H]1CC[C@@H](c2ccccc2)CC1 [Compound 24] | < 100 nM | – |
| CS(=O)(=O)N[C@H]1CCN(c2ccccn2)C[C@H]1CO[C@H]1CC[C@@H](c2cnccn2)CC1 [Compound 9] | > 1000 nM | – |
| CS(=O)(=O)N[C@H]1CCN(Cc2ccccc2)C[C@H]1CO[C@H]1CC[C@@H](c2ccccc2)CC1 [Compound 36] | > 1000 nM | – |
| CS(=O)(=O)N[C@H]1CCN(c2ccccn2)C[C@H]1CO[C@H]1CC[C@@H](c2ccccc2)CC1 [Compound 10] | < 100 nM | – |
| C[C@@]1(CO[C@H]2CC[C@@H](c3ccccc3)CC2)CN(c2ccccn2)CC[C@@H]1NS(C)(=O)=O [Compound 29] | < 100 nM | – |
| Cc1cccc([C@H]2CC[C@@H](OC[C@@H]3CN(c4ccccn4)CC[C@@H]3NS(C)(=O)=O)CC2)c1 [Compound 16] | < 100 nM | – |
| CS(=O)(=O)N[C@H]1CCN(Cc2cccnc2)C[C@H]1CO[C@H]1CC[C@@H](c2ccccc2)CC1 [Compound 40] | > 1000 nM | – |
| CS(=O)(=O)N[C@H]1CCN(c2ccccn2)C[C@H]1CO[C@H]1CC[C@@H](c2ncccn2)CC1 [Compound 11] | > 1000 nM | – |
| CS(=O)(=O)N[C@H]1CCN(c2cnccn2)C[C@H]1CO[C@H]1CC[C@@H](c2ccccc2)CC1 [Compound 21] | < 100 nM | – |
| Cc1cc(C)cc([C@H]2CC[C@@H](OC[C@@H]3CN(c4ccccn4)CC[C@@H]3NS(C)(=O)=O)CC2)c1 [Compound 18] | < 100 nM | – |
| CS(=O)(=O)N[C@H]1CCN(c2ccccn2)C[C@H]1CO[C@H]1CC[C@@H](c2cccc(C#N)c2)CC1 [Compound 35] | < 100 nM | – |

| Structure (SMILES) | EC50 [1] | also measured |
| --- | --- | --- |
| CS(=O)(=O)N[C@H]1CCN(c2ccccn2)C[C@H]1CO[C@H]1CC[C@@H](c2ccccc2F)CC1 [Compound 5] | < 100 nM | – |
| CS(=O)(=O)N[C@H]1CCN(c2ncccc2C(F)(F)F)C[C@H]1CO[C@H]1CC[C@@H](c2ccccc2)CC1 [Compound 28] | < 100 nM | – |
| CS(=O)(=O)N[C@H]1CCN(c2ccccn2)C[C@H]1CO[C@H]1CC[C@@H](c2ccncc2)CC1 [Compound 4] | < 100 nM | – |
| CS(=O)(=O)N[C@H]1CCN(c2ccccn2)C[C@H]1CO[C@H]1CC[C@@H](c2ccccn2)CC1 [Compound 2] | < 100 nM | – |
| CS(=O)(=O)N[C@H]1CCN(c2ccccn2)C[C@H]1CO[C@H]1CC[C@@H](c2ccc(O)cc2)CC1 [Compound 32] | < 100 nM | – |
| CS(=O)(=O)N[C@H]1CCN(Cc2ccccn2)C[C@H]1CO[C@H]1CC[C@@H](c2ccccc2)CC1 [Compound 39] | > 1000 nM | – |
| CS(=O)(=O)N[C@H]1CCN(c2ccccn2)C[C@H]1CO[C@H]1CC[C@@H](c2cccnc2)CC1 [Compound 3] | < 100 nM | – |
| CS(=O)(=O)N[C@H]1CCN(c2ccccn2)C[C@H]1CO[C@H]1CC[C@@H](c2cncnc2)CC1 [Compound 12] | > 1000 nM | – |
| Cc1ccccc1[C@H]1CC[C@@H](OC[C@@H]2CN(c3ccccn3)CC[C@@H]2NS(C)(=O)=O)CC1 [Compound 15] | < 100 nM | – |
| CS(=O)(=O)N[C@H]1CCN(c2ncccn2)C[C@H]1CO[C@H]1CC[C@@H](c2ccccc2)CC1 [Compound 19] | < 100 nM | – |
| CS(=O)(=O)N[C@H]1CCN(c2ccccn2)C[C@H]1CO[C@H]1CC[C@@H](c2cccc(O)c2)CC1 [Compound 31] | < 100 nM | – |
| CS(=O)(=O)N[C@H]1CCN(c2nccc3ocnc23)C[C@H]1CO[C@H]1CC[C@@H](c2ccccc2)CC1 [Compound 45] | < 100 nM | – |
| CS(=O)(=O)N[C@H]1CCN(c2ccccn2)C[C@H]1CO[C@H]1CC[C@@H](c2cccnn2)CC1 [Compound 14] | > 1000 nM | – |
| CS(=O)(=O)N[C@H]1CCN(c2ccccn2)CC1COC1CCC(c2ccccn2)CC1 (some centres unmarked) [Compound 2] | – | hepatocyte CLint at 1 μM [2]: 53 µL/min/1e6 cells; Extraction Ratio (ER) (human hepatocytes): 0.89 |
| CS(=O)(=O)N[C@H]1CCN(c2cccc(F)n2)C[C@H]1CO[C@H]1CC[C@@H](c2ccccc2)CC1 [Compound 23] | < 100 nM | – |
| CS(=O)(=O)N[C@H]1CCN(Cc2ccncc2)C[C@H]1CO[C@H]1CC[C@@H](c2ccccc2)CC1 [Compound 41] | > 1000 nM | – |
| CS(=O)(=O)N[C@H]1CCN(c2cccnn2)C[C@H]1CO[C@H]1CC[C@@H](c2ccccc2)CC1 [Compound 22] | < 100 nM | – |
| CS(=O)(=O)N[C@H]1CCN(c2ncccc2O)C[C@H]1CO[C@H]1CC[C@@H](c2ccccc2)CC1 [Compound 27] | < 100 nM | – |
| CS(=O)(=O)N[C@H]1CCN(c2ccncn2)C[C@H]1CO[C@H]1CC[C@@H](c2ccccc2)CC1 [Compound 20] | < 100 nM | – |
| CS(=O)(=O)N[C@H]1CCN(c2cccc3ncnn23)C[C@H]1CO[C@H]1CC[C@@H](c2ccccc2)CC1 [Compound 43] | > 1000 nM | – |

Reference: patent US12441710B2, “Substituted piperidino compounds and related methods of treatment” (Alkermes, Inc., priority 2020, dated 2025)
